The record followed here is the OligoGym collection.

These antisense oligonucleotides have a phosphorothioate backbone; sugars and methylation of C are not fully specified.

Some targets named below: REL; EGR1; SUMO1.
Settings in all cases: ASO
Also: test concentration or dose not given here.

As to AAACAGTAGTATTGGAAT, the remaining target (mRNA or protein) (fraction of control) in the data set with REL was at least 1.
As to AACGGAACAACACTCTGA, the remaining target (mRNA or protein) (fraction of control) with EGR1 was at least 1.
Sequence AATCCACTTGAGATGGGC displayed a remaining target (mRNA or protein) (fraction of control) with REL of 0.74.
The sequence AATGGATTGATTCCTGCC registered a remaining target (mRNA or protein) (fraction of control) with REL of at least 1.
On the same count and under the same terms, the result for ACACGACAAATCCTTAAT reads at least 1.
In turn, ACTAATGTAATTCTCACT had a remaining target (mRNA or protein) (fraction of control) with REL of at least 1.
As to ACTCGATTTTCTAGCATT, the remaining target (mRNA or protein) (fraction of control) with EGR1 was at least 1.
As to ACTGACTATCTTGAACAA, the remaining target (mRNA or protein) (fraction of control) with REL is at least 1.
In the case of AGAGGATCACCATTGGTT, in the data set with EGR1, the remaining target (mRNA or protein) (fraction of control) is at least 1.
For the sequence AGATGGTGCTGAGGACGA, in the data set with EGR1, the remaining target (mRNA or protein) (fraction of control) was at least 1.
AGTCAGGAGGCCGAGGGA yielded a remaining target (mRNA or protein) (fraction of control) with REL of at least 1.
On the same count and under the same terms, next, ATACGCACCGGAGGCCAT: at least 1.
Turning to ATGCCTCTTGCGTTCATC, the remaining target (mRNA or protein) (fraction of control) with EGR1 is at least 1.
Turning to ATGCCTTTTGCTTCCCAA, the remaining target (mRNA or protein) (fraction of control) in the data set with REL amounted to 0.14.
Take ATGCTGCCTGCTGATCGC: the remaining target (mRNA or protein) (fraction of control) with REL worked out at 0.41.
In turn, ATGTCCGAAAGCCCTGTG registered a remaining target (mRNA or protein) (fraction of control) with EGR1 of at least 1.
Consider ATTCTCAGTCAGTATTAT, for which, in the data set with REL, the remaining target (mRNA or protein) (fraction of control) came out at 0.75.
For ATTTGTATCTAAAACGCA, the remaining target (mRNA or protein) (fraction of control) with REL is at least 1.
For the sequence CAAAAGGCACCAAGACGT, the remaining target (mRNA or protein) (fraction of control) with EGR1 was at least 1.
Turning to CAAAATGCTGCATCTATA, the remaining target (mRNA or protein) (fraction of control) with REL stood at 0.79.
Still for that read-out and setting: the result for CACAATTCTTGTTTACAC reads 0.84; that for CACAGTCTCACCACATTG, 0.39; that for CACTAACTTCCTGGTCAG, 0.48.
CAGCAGCATCATCTCCTC showed a remaining target (mRNA or protein) (fraction of control) with EGR1 of at least 1.
In the data set with EGR1, CATGGCACAGACACTGTA showed a remaining target (mRNA or protein) (fraction of control) of at least 1.
CCACTGGGCAAGCGTAAG showed a remaining target (mRNA or protein) (fraction of control) in the data set with EGR1 of at least 1.
CCATATAAATCTGCTGAT gave a remaining target (mRNA or protein) (fraction of control) with REL of at least 1.
In the data set with EGR1, CCCCGCCGCCTCCACCGC gave a remaining target (mRNA or protein) (fraction of control) of 0.38.
CCTGCGGCGGCGGAAGCT had a remaining target (mRNA or protein) (fraction of control) in the data set with EGR1 of at least 1.
In the data set with REL, CGAGACAACAGGAGGAAG gave a remaining target (mRNA or protein) (fraction of control) of 0.8.
On to CGCAGGCGAAGGGCTTTT, for which the remaining target (mRNA or protein) (fraction of control) in the data set with EGR1 was at least 1.
The same measure, in the same setting: next, CGGCAGGGTAGGCAGGAG: 0.56.
As for CGGTTGTTGTCTGTGCTG, the remaining target (mRNA or protein) (fraction of control) with REL is 0.38.
Sequence CTCACTAGGCCACTGACC registered a remaining target (mRNA or protein) (fraction of control) in the data set with EGR1 of at least 1.
For CTCCTCCTTCTTCCCGCC, the remaining target (mRNA or protein) (fraction of control) with REL amounted to 0.78.
Take CTCGCCCGTGTCCGCCTG: in the data set with EGR1, the remaining target (mRNA or protein) (fraction of control) was at least 1.
In the data set with REL, CTTCCCGCAGGCAGCTCC gave a remaining target (mRNA or protein) (fraction of control) of 0.56.
Still for that read-out and setting: next, CTTTTCCATAATAGTTCA: 0.85.
Turning to GAAAATGTCAGTGTTCGG, in the data set with EGR1, the remaining target (mRNA or protein) (fraction of control) is at least 1.
With GAAGTCTTGGATTATCAG, in the data set with REL, the remaining target (mRNA or protein) (fraction of control) is at least 1.
The same measure, in the same setting: the result for GAATGGTGGGATACCTTG reads 0.43.
GAGAGGAGAAGGAGGTGG yielded a remaining target (mRNA or protein) (fraction of control) in the data set with EGR1 of at least 1.
Turning to GAGGTTTATATGGGTCAT, the remaining target (mRNA or protein) (fraction of control) with REL was at least 1.
In the data set with EGR1, GATGGCGGCGGCGGCTCC showed a remaining target (mRNA or protein) (fraction of control) of at least 1.
GATGTCAGGAAAAGACTC: in the data set with EGR1, the remaining target (mRNA or protein) (fraction of control) was at least 1.
On the same count and under the same terms, next, GGAAGGGCTTCTGGTCTG: at least 1; GGAATTGGCTCTGAGAAC: at least 1.
GGGCCTGGCCGGGTTACA: in the data set with EGR1, the remaining target (mRNA or protein) (fraction of control) was 0.4.
In the data set with EGR1, GGGCGAGTGAGGAAAGGA showed a remaining target (mRNA or protein) (fraction of control) of 0.63.
Same read-out and setting: the result for GGTAGGAAGAGAGAGAGG reads at least 1.
On the same count and under the same terms, next, GGTCCTGGGAGCCCGACT: at least 1; GGTGAAGAACTTGGACAT: at least 1.
In the data set with REL, GTATTGCCTGAGCGTGGG had a remaining target (mRNA or protein) (fraction of control) of 0.57.
Same read-out and setting: next, GTCTCAAGTCTCTTGGGT: 0.41.
On the same count and under the same terms, the result for GTCTGCGTTCTTGTCCAA reads at least 1.
On to GTGGGCAGAAAGGATTGT, for which the remaining target (mRNA or protein) (fraction of control) with EGR1 was found to be 0.8.
Sequence GTTTGATGAGCTGGGACT yielded a remaining target (mRNA or protein) (fraction of control) in the data set with EGR1 of at least 1.
The same measure, in the same setting: next, TAATACAATAGAATATGC: at least 1.
Sequence TATCCAAAATCCATGCAA had a remaining target (mRNA or protein) (fraction of control) with EGR1 of at least 1.
Regarding TCACCTTATCTGTCATCT, the remaining target (mRNA or protein) (fraction of control) with SUMO1 was at least 1.
As for TCATATTCACAGAACAAT, the remaining target (mRNA or protein) (fraction of control) with REL is at least 1.
The sequence TCATCGGCATTGTTGTAA had a remaining target (mRNA or protein) (fraction of control) with REL of 0.54.
Same read-out and setting: the result for TCATTTATCATGCTGTTA reads at least 1.
As for TCCATCTCCCACTGAAAG, the remaining target (mRNA or protein) (fraction of control) in the data set with SUMO1 turned out to be 0.53.
Turning to TCCCAAAGTGCTAGGATT, the remaining target (mRNA or protein) (fraction of control) with REL is 0.7.
With TCCGTTTTGAACACCACA, the remaining target (mRNA or protein) (fraction of control) with SUMO1 worked out at 0.29.
Take TCGAGTGGTTTGGCTGGG: the remaining target (mRNA or protein) (fraction of control) with EGR1 is at least 1.
On the same count and under the same terms, the result for TCGCTGCGGCTGAAGTTG reads at least 1; that for TCTCCTCCTCCTGTCCTT, at least 1.
Sequence TCTCTCACAACTGCATCA showed a remaining target (mRNA or protein) (fraction of control) with REL of 0.58.
Consider TCTGCTTTCTTGTCCTTC, for which, in the data set with EGR1, the remaining target (mRNA or protein) (fraction of control) was at least 1.
Still for that read-out and setting: next, TCTTTCCCCTTTCCCTTT: 0.93.
As for TCTTTCTGAACTTTGTCA, the remaining target (mRNA or protein) (fraction of control) with REL came to 0.98.
In the case of TGAATCTCACTGCTATCC, the remaining target (mRNA or protein) (fraction of control) with SUMO1 is at least 1.
Take TGATCCACCCGCCTTGGC: the remaining target (mRNA or protein) (fraction of control) with REL was at least 1.
As for TGCGGATGTGGCGGGTGA, the remaining target (mRNA or protein) (fraction of control) with EGR1 is at least 1.
As to TGTAATCCCAGCACTTTG, in the data set with REL, the remaining target (mRNA or protein) (fraction of control) stood at 0.73.
Consider TTACTGTTACGGGTTCTG, for which the remaining target (mRNA or protein) (fraction of control) in the data set with REL came to 0.64.
In turn, TTCATTGGAACACCCTGT showed a remaining target (mRNA or protein) (fraction of control) with SUMO1 of 0.32.
On the same count and under the same terms, the result for TTCCTCCATTCCCAGTTC reads at least 1; that for TTCTTTGAGTTTCTTGAG, at least 1.
Regarding TTCTTTTGGAGTATGATT, the remaining target (mRNA or protein) (fraction of control) with SUMO1 is at least 1.
With TTGTATTCGCTATGTCCA, in the data set with REL, the remaining target (mRNA or protein) (fraction of control) was determined as 0.53.
Consider TTTCTACGTGATCCTGGC, for which, in the data set with REL, the remaining target (mRNA or protein) (fraction of control) was determined as 0.85.
The same measure, in the same setting: next, TTTGCTTTATTGCCGTAA: at least 1.
